Data reported in US11291624B2, “Compositions comprising active botanical ingredients” (CONOPCO, INC., priority 2018, dated 2022).

Tested on: MelaKuits reconstructed human pigmented LSE model
Assay: Inhibition of melanin in a living skin-equivalent (LSE) model
Assay type: cell-based
Settings: for Melanin content as % of control: UVB-exposed pigmented LSE, the lower the better
Method: Details of the test are as follows:
Materials: • MelaKuits®, a reconstructed human pigmented LSE model, derived from 3D culture of normal human epidermal keratinocytes and melanocytes from Asian donors.
The pigmented LSE model was exposed to UVB (50 mJ/cm^2) for seven consecutive days day at periodic intervals of 24 hours to stimulate the synthesis of melanin. The extracts were applied topically on each LSE model on day 4 and day 6 with an interval of 48 hours for refreshing. For comparison, a blank experiment was carried out in which the LSE was neither exposed to UV radiation nor was any extract applied thereon. A control experiment was also carried out in which the LSE model was exposed to UV radiation, but no other treatment was followed.
On day 8, the appearance of each LSE model was assessed by photographing them. Thereafter, all the models subjected to the test were separated from their respective inserts and placed on a white plastic plate with the stratum corneum side facing up. The luminance (L*) value was read using a spectrophotometer CM700 (Konica-Minolta). For each model, the luminance was measured thrice, and the mean value was calculated for comparison.

SMILES | Melanin content as % of control (75 μM, topical on day 4 and day 6, read on day 8) | Effectiveness in reducing melanin content, in words (positive control, Table 2) | Melanin content as % of control (2.5 μM)
O=c1cc(CO)occ1O [Kojic acid] | 77.4 % of control | most effective ingredient | 
CC1(C)C=Cc2c(ccc3c2OC[C@@H](c2ccc(O)cc2O)C3)O1 [Glabridin] |  |  | 97.1 % of control
